Measured values published in ChEMBL document CHEMBL5291721, “A preclinical secondary pharmacology resource illuminates target-adverse drug reaction associations of marketed drugs” (Nat Commun, 2023).

Key:
Histamine H2 receptor = Histamine H2 receptor (Homo sapiens, UniProt P25021)
B1 bradykinin receptor = molecular target: T1, B1 bradykinin receptor (Homo sapiens, UniProt P46663)
T1 sequence (P46663 whole entry): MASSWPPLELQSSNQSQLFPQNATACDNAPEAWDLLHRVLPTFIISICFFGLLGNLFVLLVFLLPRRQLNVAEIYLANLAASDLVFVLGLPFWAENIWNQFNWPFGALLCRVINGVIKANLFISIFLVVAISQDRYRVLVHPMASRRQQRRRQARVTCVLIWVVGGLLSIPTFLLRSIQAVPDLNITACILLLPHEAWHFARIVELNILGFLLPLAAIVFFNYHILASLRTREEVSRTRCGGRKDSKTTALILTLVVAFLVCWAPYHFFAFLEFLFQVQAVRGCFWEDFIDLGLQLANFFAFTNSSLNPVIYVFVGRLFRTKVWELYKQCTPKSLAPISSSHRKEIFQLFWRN

[1] = molecular target: T2, 5-hydroxytryptamine receptor 1A (Homo sapiens, UniProt P08908)
T2 sequence (P08908 whole entry): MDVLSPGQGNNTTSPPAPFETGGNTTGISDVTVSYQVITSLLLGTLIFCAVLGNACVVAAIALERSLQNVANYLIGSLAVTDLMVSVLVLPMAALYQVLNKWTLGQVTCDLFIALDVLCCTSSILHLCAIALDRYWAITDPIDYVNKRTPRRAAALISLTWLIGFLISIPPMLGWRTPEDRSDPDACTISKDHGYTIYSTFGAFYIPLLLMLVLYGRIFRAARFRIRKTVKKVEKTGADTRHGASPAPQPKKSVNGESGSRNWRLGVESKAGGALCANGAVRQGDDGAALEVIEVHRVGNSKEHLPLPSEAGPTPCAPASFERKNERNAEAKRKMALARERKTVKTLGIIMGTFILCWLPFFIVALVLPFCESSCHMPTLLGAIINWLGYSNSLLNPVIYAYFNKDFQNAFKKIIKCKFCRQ

[2] = molecular target: 5-hydroxytryptamine receptor 6 (Homo sapiens, UniProt P50406)
5-hydroxytryptamine receptor 6, sequence (P50406 whole entry): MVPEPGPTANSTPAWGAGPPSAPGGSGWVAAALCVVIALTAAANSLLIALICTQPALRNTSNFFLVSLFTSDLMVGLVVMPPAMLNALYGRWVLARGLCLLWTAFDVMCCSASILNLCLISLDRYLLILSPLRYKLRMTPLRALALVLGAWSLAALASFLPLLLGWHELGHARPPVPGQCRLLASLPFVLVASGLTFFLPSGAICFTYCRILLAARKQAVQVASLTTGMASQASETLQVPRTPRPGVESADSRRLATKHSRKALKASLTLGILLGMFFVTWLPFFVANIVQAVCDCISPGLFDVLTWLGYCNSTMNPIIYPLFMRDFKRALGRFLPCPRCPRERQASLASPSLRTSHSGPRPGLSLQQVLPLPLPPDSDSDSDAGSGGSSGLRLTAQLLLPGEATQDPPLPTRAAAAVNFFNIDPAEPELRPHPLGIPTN

D(4) dopamine receptor = molecular target: T3, D(4) dopamine receptor (Homo sapiens, UniProt P21917)
T3 sequence (P21917 whole entry): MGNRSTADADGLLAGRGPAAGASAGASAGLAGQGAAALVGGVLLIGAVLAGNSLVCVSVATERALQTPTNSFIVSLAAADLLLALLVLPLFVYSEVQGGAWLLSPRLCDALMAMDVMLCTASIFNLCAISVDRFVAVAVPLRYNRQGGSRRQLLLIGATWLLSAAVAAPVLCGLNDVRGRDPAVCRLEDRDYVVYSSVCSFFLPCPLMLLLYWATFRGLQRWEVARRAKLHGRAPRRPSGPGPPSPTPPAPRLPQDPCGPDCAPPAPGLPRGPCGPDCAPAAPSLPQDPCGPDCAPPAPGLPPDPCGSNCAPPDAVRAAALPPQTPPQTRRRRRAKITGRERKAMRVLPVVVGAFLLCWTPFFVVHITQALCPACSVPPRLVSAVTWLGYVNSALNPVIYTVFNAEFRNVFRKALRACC

[3] = molecular target: T4, Neuropeptide Y receptor type 2 (Homo sapiens, UniProt P49146)
T4 sequence (P49146 whole entry): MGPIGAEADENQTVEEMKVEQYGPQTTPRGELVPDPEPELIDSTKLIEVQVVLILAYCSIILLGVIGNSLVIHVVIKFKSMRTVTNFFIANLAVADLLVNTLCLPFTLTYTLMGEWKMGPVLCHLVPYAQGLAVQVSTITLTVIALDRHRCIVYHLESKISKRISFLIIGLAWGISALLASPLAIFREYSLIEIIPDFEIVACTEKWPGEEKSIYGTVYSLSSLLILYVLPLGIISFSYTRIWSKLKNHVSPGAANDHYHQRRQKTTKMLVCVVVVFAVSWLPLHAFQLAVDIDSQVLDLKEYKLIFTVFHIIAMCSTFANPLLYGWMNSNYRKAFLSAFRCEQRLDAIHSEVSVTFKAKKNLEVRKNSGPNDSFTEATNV

[4] = molecular target: T5, Alpha-2A adrenergic receptor (Homo sapiens, UniProt P08913)
T5 sequence (P08913 whole entry): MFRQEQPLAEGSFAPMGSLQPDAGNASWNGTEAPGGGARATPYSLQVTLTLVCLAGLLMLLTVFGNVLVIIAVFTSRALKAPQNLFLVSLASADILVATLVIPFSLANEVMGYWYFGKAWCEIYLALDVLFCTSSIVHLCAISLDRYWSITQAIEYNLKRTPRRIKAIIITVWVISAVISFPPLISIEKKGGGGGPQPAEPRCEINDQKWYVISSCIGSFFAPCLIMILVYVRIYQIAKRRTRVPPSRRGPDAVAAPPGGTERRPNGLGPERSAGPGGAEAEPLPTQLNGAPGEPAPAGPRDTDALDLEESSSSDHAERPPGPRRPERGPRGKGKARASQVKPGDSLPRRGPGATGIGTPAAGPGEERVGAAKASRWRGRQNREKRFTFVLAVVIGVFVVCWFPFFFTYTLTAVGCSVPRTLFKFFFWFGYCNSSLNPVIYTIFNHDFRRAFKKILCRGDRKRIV

[5] = molecular target: Gamma-aminobutyric acid receptor subunit alpha-1/alpha-2/beta-2/gamma-2 (Homo sapiens, UniProt P14867+P18507+P47869+P47870); format: functional, cell-based
Gamma-aminobutyric acid receptor subunit alpha-1/alpha-2/beta-2/gamma-2, sequence (P14867 whole entry): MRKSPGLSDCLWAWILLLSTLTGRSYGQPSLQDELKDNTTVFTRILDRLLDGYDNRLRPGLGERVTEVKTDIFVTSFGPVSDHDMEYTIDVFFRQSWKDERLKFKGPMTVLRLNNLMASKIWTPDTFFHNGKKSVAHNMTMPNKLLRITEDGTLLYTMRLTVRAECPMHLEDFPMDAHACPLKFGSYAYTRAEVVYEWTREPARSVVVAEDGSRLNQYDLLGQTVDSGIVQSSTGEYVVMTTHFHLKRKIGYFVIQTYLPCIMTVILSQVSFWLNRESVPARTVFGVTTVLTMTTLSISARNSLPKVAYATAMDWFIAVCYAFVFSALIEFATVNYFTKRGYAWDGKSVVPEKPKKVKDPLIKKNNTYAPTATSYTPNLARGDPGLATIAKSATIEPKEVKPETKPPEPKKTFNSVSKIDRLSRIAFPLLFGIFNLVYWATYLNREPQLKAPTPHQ
Gamma-aminobutyric acid receptor subunit alpha-1/alpha-2/beta-2/gamma-2, sequence (P47870 whole entry): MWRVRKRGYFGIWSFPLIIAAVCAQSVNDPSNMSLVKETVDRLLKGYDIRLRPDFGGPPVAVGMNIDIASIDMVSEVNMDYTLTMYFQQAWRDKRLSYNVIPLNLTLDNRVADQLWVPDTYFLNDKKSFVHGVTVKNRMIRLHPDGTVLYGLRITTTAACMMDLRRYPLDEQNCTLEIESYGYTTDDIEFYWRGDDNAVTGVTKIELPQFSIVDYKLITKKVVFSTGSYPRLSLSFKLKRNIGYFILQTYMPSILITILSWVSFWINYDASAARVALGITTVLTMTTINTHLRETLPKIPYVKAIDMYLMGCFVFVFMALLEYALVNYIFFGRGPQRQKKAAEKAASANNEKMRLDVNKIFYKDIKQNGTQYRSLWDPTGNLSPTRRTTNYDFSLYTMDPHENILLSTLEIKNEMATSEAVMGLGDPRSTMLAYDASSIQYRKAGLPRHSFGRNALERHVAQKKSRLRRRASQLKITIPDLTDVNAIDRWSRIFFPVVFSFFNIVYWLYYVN
Gamma-aminobutyric acid receptor subunit alpha-1/alpha-2/beta-2/gamma-2, sequence (P18507 whole entry): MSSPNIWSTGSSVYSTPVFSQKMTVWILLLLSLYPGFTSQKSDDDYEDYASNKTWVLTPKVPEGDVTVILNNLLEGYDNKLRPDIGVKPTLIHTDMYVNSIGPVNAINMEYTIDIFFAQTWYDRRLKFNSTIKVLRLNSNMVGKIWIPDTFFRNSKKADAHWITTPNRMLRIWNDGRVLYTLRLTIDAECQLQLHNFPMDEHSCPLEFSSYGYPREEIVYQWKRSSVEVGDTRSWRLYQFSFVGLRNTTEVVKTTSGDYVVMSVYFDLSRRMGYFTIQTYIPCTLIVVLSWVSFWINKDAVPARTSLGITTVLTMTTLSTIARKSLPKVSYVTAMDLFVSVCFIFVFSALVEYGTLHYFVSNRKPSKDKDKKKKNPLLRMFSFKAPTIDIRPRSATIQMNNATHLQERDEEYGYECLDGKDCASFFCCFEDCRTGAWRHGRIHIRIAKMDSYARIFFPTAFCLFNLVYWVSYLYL
Gamma-aminobutyric acid receptor subunit alpha-1/alpha-2/beta-2/gamma-2, sequence (P47869 whole entry): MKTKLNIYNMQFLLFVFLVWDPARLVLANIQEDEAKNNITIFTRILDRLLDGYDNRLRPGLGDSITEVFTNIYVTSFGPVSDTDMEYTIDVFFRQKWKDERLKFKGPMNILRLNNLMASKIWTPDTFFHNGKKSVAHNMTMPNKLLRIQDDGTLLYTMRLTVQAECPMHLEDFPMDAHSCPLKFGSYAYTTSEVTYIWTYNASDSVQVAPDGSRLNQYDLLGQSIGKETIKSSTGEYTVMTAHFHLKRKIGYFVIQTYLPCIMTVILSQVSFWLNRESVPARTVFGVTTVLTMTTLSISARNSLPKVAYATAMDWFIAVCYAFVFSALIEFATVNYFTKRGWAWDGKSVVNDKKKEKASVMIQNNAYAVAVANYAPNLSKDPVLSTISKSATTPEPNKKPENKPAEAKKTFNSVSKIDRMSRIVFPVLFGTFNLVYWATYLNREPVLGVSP

[6] = molecular target: T6, Peroxisome proliferator-activated receptor gamma (Homo sapiens, UniProt P37231); format: functional
T6 sequence (P37231 whole entry): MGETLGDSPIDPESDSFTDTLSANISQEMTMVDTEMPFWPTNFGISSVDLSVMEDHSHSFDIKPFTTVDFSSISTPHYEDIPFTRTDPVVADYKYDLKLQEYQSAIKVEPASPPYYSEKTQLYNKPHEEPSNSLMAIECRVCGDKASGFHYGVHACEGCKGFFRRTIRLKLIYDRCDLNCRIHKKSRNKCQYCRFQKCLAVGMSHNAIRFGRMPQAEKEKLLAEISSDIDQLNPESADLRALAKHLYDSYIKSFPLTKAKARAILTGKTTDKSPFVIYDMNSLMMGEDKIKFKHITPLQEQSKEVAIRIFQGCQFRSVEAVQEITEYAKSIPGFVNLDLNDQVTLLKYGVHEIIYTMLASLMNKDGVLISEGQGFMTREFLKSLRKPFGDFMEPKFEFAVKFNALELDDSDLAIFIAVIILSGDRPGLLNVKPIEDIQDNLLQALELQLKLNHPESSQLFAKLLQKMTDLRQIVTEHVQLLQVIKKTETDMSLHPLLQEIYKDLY

[7] = molecular target: T6, Peroxisome proliferator-activated receptor gamma; format: functional; remark: listed apart in the source
Note: assay procedure not described here.

Histamine H2 receptor, sequence (P25021 whole entry): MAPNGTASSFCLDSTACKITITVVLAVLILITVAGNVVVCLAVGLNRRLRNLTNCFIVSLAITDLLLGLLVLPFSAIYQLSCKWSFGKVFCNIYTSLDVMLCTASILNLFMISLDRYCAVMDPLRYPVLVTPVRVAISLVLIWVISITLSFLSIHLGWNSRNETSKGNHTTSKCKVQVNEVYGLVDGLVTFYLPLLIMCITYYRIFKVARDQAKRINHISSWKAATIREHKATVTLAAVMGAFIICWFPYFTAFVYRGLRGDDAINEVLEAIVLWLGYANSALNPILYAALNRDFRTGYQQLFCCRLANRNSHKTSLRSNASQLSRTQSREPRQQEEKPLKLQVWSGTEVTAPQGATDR

| SMILES | AC50 (Histamine H2 receptor) | AC50 (B1 bradykinin receptor) | AC50 [1] | AC50 [2] | AC50 (D(4) dopamine receptor) | AC50 [3] | AC50 [4] | AC50 [5] | AC50 [6] | AC50 [7] |
| --- | --- | --- | --- | --- | --- | --- | --- | --- | --- | --- |
| Nc1nc(N)c2nc(-c3ccccc3)c(N)nc2n1 | > 10 µM | > 10 µM | > 10 µM | > 10 µM | > 10 µM | > 30 µM | > 10 µM | – | – | – |
| CN(C)CCCN1c2ccccc2CCc2ccc(Cl)cc21 [CLOMIPRAMINE] | – | – | > 10 µM | – | – | – | > 10 µM | – | – | – |
| NS(=O)(=O)c1cc2c(cc1Cl)NCNS2(=O)=O [HYDROCHLOROTHIAZIDE] | > 10 µM | > 30 µM | > 10 µM | > 10 µM | > 10 µM | > 30 µM | > 10 µM | – | – | – |
| CC(=O)OCC(=O)[C@@]1(O)CC[C@H]2[C@@H]3CCC4=CC(=O)CC[C@]4(C)[C@H]3C(=O)C[C@@]21C [CORTISONE ACETATE] | – | – | – | – | – | – | – | > 30 µM | – | – |
| NC1=NC(=O)C(c2ccccc2)O1 (stereo not given) [PEMOLINE] | – | – | > 10 µM | – | – | – | – | – | – | – |
| N[C@@H](C(=O)N[C@@H]1C(=O)N2C(C(=O)O)=C(Cl)CS[C@H]12)c1ccccc1 [CEFACLOR ANHYDROUS] | – | – | – | – | – | – | – | > 30 µM | > 30 µM | > 30 µM |
| CCN(CC)CCNC(=O)c1cc(Cl)c(N)cc1OC [METOCLOPRAMIDE] | > 10 µM | > 30 µM | > 10 µM | – | 1.16 µM | > 30 µM | 7.32 µM | – | – | – |
| CCc1nn(CCCN2CCN(c3cccc(Cl)c3)CC2)c(=O)n1CCOc1ccccc1 [NEFAZODONE] | – | > 30 µM | 0.254 µM | 0.808 µM | 0.271 µM | > 30 µM | – | – | – | – |
| OCc1cc([C@@H](O)CNCCCCCCOCCOCc2c(Cl)cccc2Cl)ccc1O [VILANTEROL] | – | – | – | – | – | – | – | > 30 µM | > 30 µM | > 30 µM |
| COC(=O)[C@@H]1CC2=CC(=O)CC[C@]2(C)[C@@]23O[C@@H]2C[C@@]2(C)[C@@H](CC[C@@]24CCC(=O)O4)[C@H]13 [EPLERENONE] | > 10 µM | > 30 µM | > 10 µM | – | – | > 30 µM | > 10 µM | > 30 µM | > 30 µM | > 30 µM |
| COc1cc(Nc2c(C#N)cnc3cc(OCCCN4CCN(C)CC4)c(OC)cc23)c(Cl)cc1Cl [BOSUTINIB] | – | > 30 µM | > 10 µM | > 10 µM | > 10 µM | > 30 µM | 6.01 µM | – | – | – |
| CC(C)NCC(O)COc1ccc(COCCOC(C)C)cc1 (stereo not given) [BISOPROLOL] | > 10 µM | > 30 µM | > 10 µM | – | > 10 µM | > 30 µM | > 10 µM | – | – | – |
| CC(N)Cc1ccccc1 (stereo not given) [AMPHETAMINE] | – | > 30 µM | > 10 µM | – | – | > 30 µM | – | > 30 µM | > 30 µM | > 30 µM |
| C#C[C@]1(O)CC[C@H]2[C@@H]3CCc4cc(O)ccc4[C@H]3CC[C@@]21C [ETHINYL ESTRADIOL] | > 10 µM | > 30 µM | > 10 µM | > 30 µM | > 10 µM | > 30 µM | > 10 µM | – | – | – |
| CC(C)NNC(=O)c1ccncc1 [IPRONIAZID] | – | – | – | – | – | – | – | > 30 µM | > 30 µM | > 30 µM |
| CC[C@H](C)C(=O)O[C@H]1C[C@H](O)C=C2C=C[C@H](C)[C@H](CC[C@@H](O)C[C@@H](O)CC(=O)O)[C@H]21 [PRAVASTATIN] | – | – | – | – | – | – | – | > 30 µM | > 30 µM | > 30 µM |
| CO/N=C(\C(=O)N[C@@H]1C(=O)N2C(C(=O)[O-])=C(C[N+]3(C)CCCC3)CS[C@H]12)c1csc(N)n1 | – | – | – | – | – | – | – | > 2400 µM | > 300 µM | 200 µM |
| CCOC(=O)[C@H](CCc1ccccc1)N[C@@H](C)C(=O)N1CCC[C@H]1C(=O)O | > 10 µM | > 30 µM | > 10 µM | > 10 µM | > 10 µM | > 30 µM | > 10 µM | – | – | – |
| CN1CCCC(n2nc(Cc3ccc(Cl)cc3)c3ccccc3c2=O)CC1 (stereo not given) [AZELASTINE] | – | – | – | – | – | – | – | > 30 µM | > 30 µM | > 30 µM |
| OCCN1CCN(CCCN2c3ccccc3C=Cc3ccccc32)CC1 [OPIPRAMOL] | – | – | – | – | – | – | – | > 30 µM | > 30 µM | > 30 µM |
| CC(C(=O)O)c1ccc(N2CC=CC2)c(Cl)c1 (stereo not given) [PIRPROFEN] | > 10 µM | > 30 µM | > 10 µM | – | > 10 µM | > 30 µM | > 10 µM | – | – | – |
| CC(C)Cc1ccc(CC(=O)O)cc1 [IBUFENAC] | – | – | – | – | – | – | – | > 30 µM | > 30 µM | > 30 µM |
| Oc1ncnc2[nH]ncc12 [ALLOPURINOL] | > 10 µM | > 30 µM | > 10 µM | – | > 10 µM | > 30 µM | > 10 µM | – | – | – |
| Cc1cccc(C)c1OCC(C)N (stereo not given) [MEXILETINE] | – | – | – | – | – | – | – | – | > 30 µM | > 30 µM |
| CC(=O)c1ccc2c(c1)N(CCCN1CCN(CCO)CC1)c1ccccc1S2 [ACETOPHENAZINE] | – | – | – | – | – | – | – | > 30 µM | > 30 µM | > 30 µM |
| NC(=O)c1ncn([C@@H]2O[C@H](CO)[C@@H](O)[C@H]2O)c1O [MIZORIBINE] | – | – | – | – | – | – | – | > 30 µM | > 30 µM | > 30 µM |
| COc1cc2c(cc1OC)C(=O)C(CC1CCN(Cc3ccccc3)CC1)C2 (stereo not given) [DONEPEZIL] | > 10 µM | > 30 µM | – | > 10 µM | 0.824 µM | > 30 µM | 10.4 µM | – | – | – |
| O=C(NC[C@H]1CN(c2ccc(N3CCOCC3=O)cc2)C(=O)O1)c1ccc(Cl)s1 [RIVAROXABAN] | – | – | – | – | – | – | – | > 30 µM | – | – |
